From patent US5010090A, “N-(butenyl substituted) azaheterocyclic carboxylic acids” (Novo Nordisk A/S., priority 1985, dated 1991)
Blank lines part the entries; values can stand above or below the compound they belong to.

What was measured:
GABA uptake [1] = assay: GABA-uptake inhibition in vitro, essentially as described by Fjalland, 3H-GABA as substrate; format: biochemical; settings: two separate experiments, 3-5 concentrations, 3H-GABA substrate (25 mM [sic])
Procedure: GABA-uptake inhibition was measured essentially as described by Fjalland (Acta Pharmacol. et. Toxicol. (1978), 42, 73-76) using 25 mM of 3H-GABA as a substrate. The results obtained appears from Table 4, the obtained values being from two separate experiments using 3-5 different concentrations of test compound.

[2] = test system: DMCM induced clonic convulsions; assay: Inhibition of DMCM induced convulsions in vivo; settings: Mus musculus, ip, 0.5 h; 50% inhibition of DMCM induced clonic convulsions; i.p. 30 min before 15 mg/kg DMCM i.p.; female NMRI mice
Procedure: Inhibition of DMCM induced convulsions was measured on female NMRI mice (20±2 g).
The test compounds were injected intraperitoneally 30 min. before an intraperitoneal injection of 15 mg/kg of DMCM.

GABA uptake [3] = settings: literature; cited from earlier work

SMILES: Cc1ccsc1C(=CCCN1CCC=C(C(=O)O)C1)c1cccs1 [Compound 3, N-(4-(3-Methylthien-2yl)-4-(thien-2-yl)but-3-enyl)guvacine]
IC50 (GABA uptake [1]): 134 nM

SMILES: Cc1ccsc1C(=CCCN1CCC(CC(=O)O)C1)c1cccs1 (stereo not shown) [Compound 4]
IC50 (GABA uptake [1]): 72 nM

SMILES: Cc1ccsc1C(=CCCN1CCCC(C(=O)O)C1)c1sccc1C (stereo not shown) [Compound 5, N-(4,4-Bis(3-methylthien-2-yl)but-3-enyl)nipecotic acid]
IC50 (GABA uptake [1]): 87 nM

SMILES: Cc1ccsc1C(=CCCN1CCC[C@@H](C(=O)O)C1)c1sccc1C [Compound 6, R-N-(4,4-bis(3-methylthien-2-yl)but-3-enyl)-nipecotic acid]
IC50 (GABA uptake [1]): 74 nM
ED50 [2]: 1.2 mg/kg

SMILES: Cc1ccsc1C(=CCCN1CCC(CC(=O)O)C1)c1sccc1C (stereo not drawn) [Compound 7, N-(4,4-Bis(3-methylthien-2-yl)but-3-enyl)-β-homoproline]
IC50 (GABA uptake [1]): 69 nM

SMILES: CCOC(=O)[C@@H]1CCCN(CCC=C(c2sccc2C)c2sccc2C)C1 [Example 23, R-N-(4,4-bis(3-methylthien-2-yl)but-3-enyl)-nipecotic acid ethyl ester]
ED50 [2]: 2.5 mg/kg

SMILES: O=C(O)C1=CCCN(CCC=C(c2ccccc2)c2ccccc2)C1 [SK&F 100330A, N-(4,4-diphenyl-3-butenyl)guvacine]
inhibition of GABA uptake (GABA uptake [3]): active inhibitors of GABA uptake

SMILES: O=C(O)CC1CCN(CCC=C(c2ccccc2)c2ccccc2)C1 (stereo not drawn) [SK&F 100561, N-(4,4-diphenyl-3-butenyl)-β-homoproline]
inhibition of GABA uptake (GABA uptake [3]): active inhibitors of GABA uptake

Now from value to compound, other results behind:

IC50 (GABA uptake [1]): 92 nM
SMILES: Cc1ccsc1C(=CCCN1CCCC(C(=O)O)C1)c1cccs1 (stereo not shown) [Compound 1, N-(4-(3-Methylthien-2-yl)-4-(thien-2-yl)but-3-enyl)nipecotic acid]

IC50 (GABA uptake [1]): 52 nM
SMILES: Cn1cccc1C(=CCCN1CCCC(C(=O)O)C1)c1cccn1C (stereo not shown) [Compound 2, N-(4,4-Bis(N-methylpyrrol-2-yl)but-3-enyl)nipecotic acid]

IC50 (GABA uptake [1]): 96 nM
SMILES: O=C(O)C1CCCN(CCC=C(c2sccc2Br)c2sccc2Br)C1 (stereo not shown) [Compound 8, N-(4,4-Bis(3-bromothien-2-yl)but-3-enyl)nipecotic acid]

IC50 (GABA uptake [1]): 465 nM
SMILES: O=C(O)C1CCCN(CCC=C(c2ccccc2)c2cccs2)C1 (stereo not shown) [Compound 9, N-(4-phenyl-4-(2-thienyl)-3-butenyl)nipecotic acid, reference compound]
inhibition of GABA uptake (GABA uptake [3]): active inhibitors of GABA uptake

IC50 (GABA uptake [1]): 353 nM
SMILES: O=C(O)C1CCCN(CCC=C(c2ccccc2)c2ccccc2)C1 (stereo not shown) [Compound 10, N-(4,4-diphenyl-3-butenyl)nipecotic acid, reference compound]
inhibition of GABA uptake (GABA uptake [3]): active inhibitors of GABA uptake
